Key:
[1] = molecular target: T1, StARD1 protein binding domain (residues 63–285) (Homo sapiens, UniProt P49675); assay: FastStep SPR equilibrium binding of carotenoids to immobilized StARD1
T1 sequence (P49675 63-285): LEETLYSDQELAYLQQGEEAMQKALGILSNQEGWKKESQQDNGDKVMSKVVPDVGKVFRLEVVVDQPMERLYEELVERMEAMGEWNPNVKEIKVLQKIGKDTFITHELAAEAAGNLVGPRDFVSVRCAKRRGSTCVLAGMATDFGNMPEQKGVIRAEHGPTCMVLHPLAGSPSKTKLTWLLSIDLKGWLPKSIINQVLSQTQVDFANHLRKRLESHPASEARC

[2] = molecular target: T2, β-lactoglobulin (LG) (Bos taurus, UniProt P02754); assay: SPR equilibrium binding of carotenoids to immobilized LG
T2 sequence (P02754 17-178): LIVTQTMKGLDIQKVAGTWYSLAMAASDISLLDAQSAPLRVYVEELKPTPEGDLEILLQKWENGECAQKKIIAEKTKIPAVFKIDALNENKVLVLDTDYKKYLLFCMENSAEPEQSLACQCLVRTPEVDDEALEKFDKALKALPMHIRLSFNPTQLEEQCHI

[3] = molecular target: human serum albumin (HSA) (Homo sapiens, UniProt P02768); assay: SPR equilibrium binding of carotenoids to immobilized HSA
Sequence of human serum albumin (HSA) (P02768 25-609): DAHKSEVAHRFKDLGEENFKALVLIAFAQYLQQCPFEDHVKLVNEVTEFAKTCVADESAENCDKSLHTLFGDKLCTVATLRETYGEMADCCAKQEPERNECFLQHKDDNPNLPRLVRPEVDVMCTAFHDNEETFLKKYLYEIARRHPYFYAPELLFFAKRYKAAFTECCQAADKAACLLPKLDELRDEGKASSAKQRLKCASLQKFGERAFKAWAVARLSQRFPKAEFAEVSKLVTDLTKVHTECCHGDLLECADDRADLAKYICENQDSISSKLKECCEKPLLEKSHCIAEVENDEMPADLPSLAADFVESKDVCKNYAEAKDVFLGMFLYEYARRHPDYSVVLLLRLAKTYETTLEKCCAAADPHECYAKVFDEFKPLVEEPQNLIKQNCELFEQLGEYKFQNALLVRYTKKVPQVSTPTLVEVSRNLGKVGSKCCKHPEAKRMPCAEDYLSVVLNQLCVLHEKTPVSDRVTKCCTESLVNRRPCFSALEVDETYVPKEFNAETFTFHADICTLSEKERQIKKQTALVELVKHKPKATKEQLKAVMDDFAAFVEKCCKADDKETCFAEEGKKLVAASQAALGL

Row | SMILES | Kd [1] | Kd [2] | Kd [3]
1 | CC1=C(/C=C/C(C)=C/C=C/C(C)=C/C=C/C=C(C)/C=C/C=C(C)/C=C/C2=C(C)CCCC2(C)C)C(C)(C)CCC1 [β-Carotene] | 1.79 ± 0.08 µM | 2.4 ± 0.05 µM | 1.53 ± 0.02 µM
2 | CC1=C(/C=C/C(C)=C/C=C/C(C)=C/C=C/C=C(C)/C=C/C=C(C)/C=C/C2=C(C)C[C@@H](O)CC2(C)C)C(C)(C)C[C@H](O)C1 [Zeaxanthin, (3R, 3′R)-zeaxanthin] | 1.32 ± 0.09 µM | 2.3 ± 0.02 µM | 1.6 ± 0.05 µM
3 | CC1=C(/C=C/C(C)=C/C=C/C(C)=C/C=C/C=C(C)/C=C/C=C(C)/C=C/C2=C(C)C(=O)[C@@H](O)CC2(C)C)C(C)(C)C[C@H](O)C1=O [Astaxanthin, (3S, 3′S)-astaxanthin] | 1.96 ± 0.09 µM | 1.9 ± 0.05 µM | 1.56 ± 0.03 µM
4 | CC1=C[C@H](O)CC(C)(C)[C@H]1/C=C/C(C)=C/C=C/C(C)=C/C=C/C=C(C)/C=C/C=C(C)/C=C/C1=C(C)C[C@@H](O)CC1(C)C [Lutein, (3R, 3′R, 6′R)-lutein] | 1.15 ± 0.06 µM | 2.48 ± 0.08 µM | 1.16 ± 0.04 µM

From article PMC3289994 (Archives of Biochemistry and Biophysics, 2012)
